The assay addresses Rho-associated protein kinase 2 (Homo sapiens, UniProt O75116). The assay can be described thus: Binding Assay: ROCK-II inhibitory activity can be measured using the ROCK-II Assay Kit (Molecular Devices, inc.; Sunnyvale, Calif.).

Molecules are shown by their SMILES.

Rho-associated protein kinase 2, sequence (O75116 whole entry): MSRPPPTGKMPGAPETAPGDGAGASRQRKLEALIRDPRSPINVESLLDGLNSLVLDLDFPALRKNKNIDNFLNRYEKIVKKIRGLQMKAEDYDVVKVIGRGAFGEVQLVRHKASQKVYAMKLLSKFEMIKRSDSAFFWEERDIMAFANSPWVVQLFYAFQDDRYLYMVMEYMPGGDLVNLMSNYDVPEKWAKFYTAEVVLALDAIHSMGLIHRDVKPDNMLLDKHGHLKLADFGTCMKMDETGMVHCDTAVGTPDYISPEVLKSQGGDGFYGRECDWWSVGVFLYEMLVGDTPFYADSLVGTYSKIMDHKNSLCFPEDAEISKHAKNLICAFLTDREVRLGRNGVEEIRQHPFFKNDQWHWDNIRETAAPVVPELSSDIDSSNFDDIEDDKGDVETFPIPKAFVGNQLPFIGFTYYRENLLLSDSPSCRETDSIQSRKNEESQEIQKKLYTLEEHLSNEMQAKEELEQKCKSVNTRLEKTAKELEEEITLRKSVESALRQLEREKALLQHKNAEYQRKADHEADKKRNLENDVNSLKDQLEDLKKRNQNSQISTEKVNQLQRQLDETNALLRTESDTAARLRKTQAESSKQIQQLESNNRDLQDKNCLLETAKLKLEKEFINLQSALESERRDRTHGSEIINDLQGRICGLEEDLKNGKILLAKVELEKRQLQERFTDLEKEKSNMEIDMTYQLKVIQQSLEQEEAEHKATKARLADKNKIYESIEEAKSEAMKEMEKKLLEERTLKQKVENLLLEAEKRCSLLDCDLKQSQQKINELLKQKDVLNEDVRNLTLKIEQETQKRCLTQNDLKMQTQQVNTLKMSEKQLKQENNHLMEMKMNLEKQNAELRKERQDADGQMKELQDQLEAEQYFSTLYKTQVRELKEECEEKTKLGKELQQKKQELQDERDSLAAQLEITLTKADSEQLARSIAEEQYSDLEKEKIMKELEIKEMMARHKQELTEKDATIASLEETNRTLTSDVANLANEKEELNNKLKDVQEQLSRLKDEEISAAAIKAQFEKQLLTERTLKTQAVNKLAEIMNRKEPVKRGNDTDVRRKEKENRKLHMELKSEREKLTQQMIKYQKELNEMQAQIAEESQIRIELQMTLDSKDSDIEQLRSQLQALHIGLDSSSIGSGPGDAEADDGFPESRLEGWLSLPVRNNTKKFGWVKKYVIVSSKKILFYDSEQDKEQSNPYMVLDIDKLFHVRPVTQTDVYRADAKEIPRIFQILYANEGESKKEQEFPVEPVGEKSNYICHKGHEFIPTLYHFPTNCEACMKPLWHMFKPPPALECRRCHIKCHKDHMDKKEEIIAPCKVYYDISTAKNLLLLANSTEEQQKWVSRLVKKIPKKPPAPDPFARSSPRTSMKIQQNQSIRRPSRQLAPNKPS

In the case of `O=C(Nc1ccccc1-c1nc(Nc2ccc3[nH]ncc3c2)c2ccccc2n1)c1ccccn1`, the half-maximal inhibitory concentration (IC50) (in general, the concentration that inhibits the measured activity by half) stood at 8.3 µM.

The values are drawn from ChEMBL document CHEMBL5727603 (2020).
